Reference: ChEMBL document CHEMBL4507311, “Data for DCP probe A-1155463” (2021)

Assays:
[1] = system: Receptor-type tyrosine-protein kinase FLT3 (Homo sapiens), P36888 [R834Q]; settings: Compound concentration 1000.0 nM
[2] = biological target: Serine/threonine-protein kinase PAK 4 (Homo sapiens) (UniProt O96013); settings: Compound concentration 1000.0 nM
[3] = biological target: Serine/threonine-protein kinase LATS1 (Homo sapiens) (UniProt O95835); settings: Compound concentration 1000.0 nM
[4] = biological target: Cyclin-dependent kinase 11B (Homo sapiens) (UniProt P21127); settings: Compound concentration 1000.0 nM
[5] = biological target: Tyrosine-protein kinase SYK (Homo sapiens) (UniProt P43405); settings: Compound concentration 1000.0 nM
[6] = biological target: Ankyrin repeat and protein kinase domain-containing protein 1 (Homo sapiens) (UniProt Q8NFD2); settings: Compound concentration 1000.0 nM
[7] = biological target: cAMP-dependent protein kinase catalytic subunit PRKX (Homo sapiens) (UniProt P51817); settings: Compound concentration 1000.0 nM
[8] = biological target: STE20-like serine/threonine-protein kinase (Homo sapiens) (UniProt Q9H2G2); settings: Compound concentration 1000.0 nM
[9] = biological target: Mitogen-activated protein kinase kinase kinase 2 (Homo sapiens) (UniProt Q9Y2U5); settings: Compound concentration 1000.0 nM
[10] = biological target: Serine/threonine-protein kinase 16 (Homo sapiens) (UniProt O75716); settings: Compound concentration 1000.0 nM
[11] = biological target: Cyclin-dependent kinase-like 1 (Homo sapiens) (UniProt Q00532); settings: Compound concentration 1000.0 nM
[12] = biological target: Tyrosine-protein kinase JAK1 (Homo sapiens) (UniProt P23458); settings: Compound concentration 1000.0 nM
[13] = biological target: Phosphatidylinositol 4-phosphate 5-kinase type-1 gamma (Homo sapiens) (UniProt O60331); settings: Compound concentration 1000.0 nM
[14] = biological target: Mitogen-activated protein kinase kinase kinase kinase 2 (Homo sapiens) (UniProt Q12851); settings: Compound concentration 1000.0 nM
[15] = biological target: Mitogen-activated protein kinase kinase kinase 14 (Homo sapiens) (UniProt Q99558); settings: Compound concentration 1000.0 nM
[16] = biological target: Tyrosine-protein kinase ABL1 (Homo sapiens) (UniProt P00519); settings: Compound concentration 1000.0 nM
[17] = biological target: D(2) dopamine receptor (Homo sapiens) (UniProt P14416); settings: Compound concentration 10.0 uM
[18] = biological target: Ephrin type-A receptor 3 (Homo sapiens) (UniProt P29320); settings: Compound concentration 1000.0 nM
[19] = biological target: Rhodopsin kinase GRK1 (Homo sapiens) (UniProt Q15835); settings: Compound concentration 1000.0 nM
[20] = biological target: Receptor tyrosine-protein kinase erbB-3 (Homo sapiens) (UniProt P21860); settings: Compound concentration 1000.0 nM
[21] = biological target: Serine/threonine-protein kinase PLK4 (Homo sapiens) (UniProt O00444); settings: Compound concentration 1000.0 nM
[22] = biological target: Uncharacterized serine/threonine-protein kinase SBK3 (Homo sapiens) (UniProt P0C264); settings: Compound concentration 1000.0 nM
[23] = biological target: Tyrosine-protein kinase Fgr (Homo sapiens) (UniProt P09769); settings: Compound concentration 1000.0 nM
[24] = biological target: Serine/threonine-protein kinase Nek9 (Homo sapiens) (UniProt Q8TD19); settings: Compound concentration 1000.0 nM
[25] = system: Mast/stem cell growth factor receptor Kit (Homo sapiens), P10721 [A829P]; settings: Compound concentration 1000.0 nM
[26] = biological target: Ephrin type-A receptor 1 (Homo sapiens) (UniProt P21709); settings: Compound concentration 1000.0 nM
[27] = biological target: Serine/threonine-protein kinase SIK2 (Homo sapiens) (UniProt Q9H0K1); settings: Compound concentration 1000.0 nM
[28] = system: Receptor-type tyrosine-protein kinase FLT3 (Homo sapiens), P36888 [D835V]; settings: Compound concentration 1000.0 nM
[29] = system: Receptor-type tyrosine-protein kinase FLT3 (Homo sapiens), P36888 [UNDEFINED MUTATION]; settings: Compound concentration 1000.0 nM
[30] = biological target: Phosphatidylinositol 3-kinase C2 domain-containing subunit gamma (Homo sapiens) (UniProt O75747); settings: Compound concentration 1000.0 nM
[31] = system: Receptor-type tyrosine-protein kinase FLT3 (Homo sapiens), P36888 [D835Y]; settings: Compound concentration 1000.0 nM
[32] = biological target: Non-receptor tyrosine-protein kinase TNK1 (Homo sapiens) (UniProt Q13470); settings: Compound concentration 1000.0 nM
[33] = biological target: TGF-beta receptor type-2 (Homo sapiens) (UniProt P37173); settings: Compound concentration 1000.0 nM
[34] = biological target: GABA-A receptor; anion channel (Rattus norvegicus) (UniProt O09028+P15431+P18506+P18508+P19969+P20236+P23574+P23576+P28471+P28473+P30191+P62813+P63079+P63138+Q91ZM7+Q9ES14); settings: Compound concentration 10.0 uM
[35] = biological target: Receptor-type tyrosine-protein kinase FLT3 (Homo sapiens) (UniProt P36888); settings: Compound concentration 1000.0 nM
[36] = biological target: G protein-coupled receptor kinase 4 (Homo sapiens) (UniProt P32298); settings: Compound concentration 1000.0 nM
[37] = biological target: Phosphatidylinositol 4,5-bisphosphate 3-kinase catalytic subunit gamma isoform (Homo sapiens) (UniProt P48736); settings: Compound concentration 1000.0 nM
[38] = biological target: Ephrin type-B receptor 6 (Homo sapiens) (UniProt O15197); settings: Compound concentration 1000.0 nM
[39] = biological target: Ephrin type-A receptor 5 (Homo sapiens) (UniProt P54756); settings: Compound concentration 1000.0 nM
[40] = biological target: Macrophage-stimulating protein receptor (Homo sapiens) (UniProt Q04912); settings: Compound concentration 1000.0 nM
[41] = biological target: Mast/stem cell growth factor receptor Kit (Homo sapiens) (UniProt P10721); settings: Compound concentration 1000.0 nM
[42] = biological target: Proto-oncogene tyrosine-protein kinase receptor Ret (Homo sapiens) (UniProt P07949); settings: Compound concentration 1000.0 nM
[43] = biological target: Serine/threonine-protein kinase ICK (Homo sapiens) (UniProt Q9UPZ9); settings: Compound concentration 1000.0 nM

STE20-like serine/threonine-protein kinase (Homo sapiens), sequence (Q9H2G2 whole entry, looked up): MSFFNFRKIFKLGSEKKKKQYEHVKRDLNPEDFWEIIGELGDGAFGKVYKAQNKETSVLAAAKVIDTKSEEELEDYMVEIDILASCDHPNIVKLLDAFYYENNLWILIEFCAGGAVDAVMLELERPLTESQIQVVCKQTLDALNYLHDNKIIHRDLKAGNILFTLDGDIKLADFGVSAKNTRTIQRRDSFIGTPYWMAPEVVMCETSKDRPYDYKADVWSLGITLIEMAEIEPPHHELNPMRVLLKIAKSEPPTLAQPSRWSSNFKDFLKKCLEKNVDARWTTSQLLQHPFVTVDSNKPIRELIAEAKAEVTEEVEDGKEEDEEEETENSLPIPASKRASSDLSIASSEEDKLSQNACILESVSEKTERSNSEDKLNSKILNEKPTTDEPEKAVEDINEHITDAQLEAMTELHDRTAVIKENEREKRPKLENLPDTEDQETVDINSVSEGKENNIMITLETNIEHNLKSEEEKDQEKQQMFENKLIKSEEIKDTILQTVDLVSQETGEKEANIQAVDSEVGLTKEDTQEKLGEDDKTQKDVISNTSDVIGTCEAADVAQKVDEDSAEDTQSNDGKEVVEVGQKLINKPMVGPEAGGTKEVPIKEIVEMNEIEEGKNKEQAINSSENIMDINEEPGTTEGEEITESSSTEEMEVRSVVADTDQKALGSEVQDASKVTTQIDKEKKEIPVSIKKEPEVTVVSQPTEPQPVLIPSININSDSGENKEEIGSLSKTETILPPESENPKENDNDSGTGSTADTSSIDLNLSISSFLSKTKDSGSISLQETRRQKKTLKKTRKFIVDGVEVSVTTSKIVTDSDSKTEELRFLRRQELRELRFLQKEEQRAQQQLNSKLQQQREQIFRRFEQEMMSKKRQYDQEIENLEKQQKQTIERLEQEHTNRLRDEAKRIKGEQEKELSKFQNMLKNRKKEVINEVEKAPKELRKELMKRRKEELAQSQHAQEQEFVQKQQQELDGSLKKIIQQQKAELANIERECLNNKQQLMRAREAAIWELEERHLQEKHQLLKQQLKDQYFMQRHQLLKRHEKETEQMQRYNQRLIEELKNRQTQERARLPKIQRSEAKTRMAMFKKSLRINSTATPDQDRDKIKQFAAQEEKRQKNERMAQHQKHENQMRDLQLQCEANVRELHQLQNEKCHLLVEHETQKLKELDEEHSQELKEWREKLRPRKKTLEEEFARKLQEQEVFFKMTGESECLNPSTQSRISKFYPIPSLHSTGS
Serine/threonine-protein kinase SIK2 (Homo sapiens), sequence (Q9H0K1 whole entry, looked up): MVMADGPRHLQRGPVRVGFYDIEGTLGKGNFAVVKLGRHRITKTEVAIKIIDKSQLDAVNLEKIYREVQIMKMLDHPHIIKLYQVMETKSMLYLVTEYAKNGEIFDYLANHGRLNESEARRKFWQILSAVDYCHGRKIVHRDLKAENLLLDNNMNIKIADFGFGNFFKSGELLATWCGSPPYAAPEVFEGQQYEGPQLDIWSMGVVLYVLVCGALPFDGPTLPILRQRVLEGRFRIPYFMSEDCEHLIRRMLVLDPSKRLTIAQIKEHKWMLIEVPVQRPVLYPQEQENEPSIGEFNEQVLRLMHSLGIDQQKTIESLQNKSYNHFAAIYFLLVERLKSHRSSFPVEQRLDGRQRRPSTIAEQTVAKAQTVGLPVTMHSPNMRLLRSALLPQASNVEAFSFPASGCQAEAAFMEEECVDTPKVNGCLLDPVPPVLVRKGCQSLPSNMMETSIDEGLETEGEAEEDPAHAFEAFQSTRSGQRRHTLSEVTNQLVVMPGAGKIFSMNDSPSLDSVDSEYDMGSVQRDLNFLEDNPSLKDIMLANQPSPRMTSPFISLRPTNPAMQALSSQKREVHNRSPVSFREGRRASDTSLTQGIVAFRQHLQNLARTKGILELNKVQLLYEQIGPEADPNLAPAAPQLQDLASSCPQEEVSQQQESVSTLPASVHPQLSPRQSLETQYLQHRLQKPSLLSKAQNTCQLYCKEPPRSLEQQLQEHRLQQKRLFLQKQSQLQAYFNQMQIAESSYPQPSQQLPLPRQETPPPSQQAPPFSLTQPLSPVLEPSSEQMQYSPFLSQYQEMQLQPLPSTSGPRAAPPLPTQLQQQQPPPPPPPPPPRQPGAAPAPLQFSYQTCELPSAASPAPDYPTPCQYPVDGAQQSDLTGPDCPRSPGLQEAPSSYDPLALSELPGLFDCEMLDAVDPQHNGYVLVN
Phosphatidylinositol 4,5-bisphosphate 3-kinase catalytic subunit gamma isoform (Homo sapiens), sequence (P48736 whole entry, looked up, canonical isoform): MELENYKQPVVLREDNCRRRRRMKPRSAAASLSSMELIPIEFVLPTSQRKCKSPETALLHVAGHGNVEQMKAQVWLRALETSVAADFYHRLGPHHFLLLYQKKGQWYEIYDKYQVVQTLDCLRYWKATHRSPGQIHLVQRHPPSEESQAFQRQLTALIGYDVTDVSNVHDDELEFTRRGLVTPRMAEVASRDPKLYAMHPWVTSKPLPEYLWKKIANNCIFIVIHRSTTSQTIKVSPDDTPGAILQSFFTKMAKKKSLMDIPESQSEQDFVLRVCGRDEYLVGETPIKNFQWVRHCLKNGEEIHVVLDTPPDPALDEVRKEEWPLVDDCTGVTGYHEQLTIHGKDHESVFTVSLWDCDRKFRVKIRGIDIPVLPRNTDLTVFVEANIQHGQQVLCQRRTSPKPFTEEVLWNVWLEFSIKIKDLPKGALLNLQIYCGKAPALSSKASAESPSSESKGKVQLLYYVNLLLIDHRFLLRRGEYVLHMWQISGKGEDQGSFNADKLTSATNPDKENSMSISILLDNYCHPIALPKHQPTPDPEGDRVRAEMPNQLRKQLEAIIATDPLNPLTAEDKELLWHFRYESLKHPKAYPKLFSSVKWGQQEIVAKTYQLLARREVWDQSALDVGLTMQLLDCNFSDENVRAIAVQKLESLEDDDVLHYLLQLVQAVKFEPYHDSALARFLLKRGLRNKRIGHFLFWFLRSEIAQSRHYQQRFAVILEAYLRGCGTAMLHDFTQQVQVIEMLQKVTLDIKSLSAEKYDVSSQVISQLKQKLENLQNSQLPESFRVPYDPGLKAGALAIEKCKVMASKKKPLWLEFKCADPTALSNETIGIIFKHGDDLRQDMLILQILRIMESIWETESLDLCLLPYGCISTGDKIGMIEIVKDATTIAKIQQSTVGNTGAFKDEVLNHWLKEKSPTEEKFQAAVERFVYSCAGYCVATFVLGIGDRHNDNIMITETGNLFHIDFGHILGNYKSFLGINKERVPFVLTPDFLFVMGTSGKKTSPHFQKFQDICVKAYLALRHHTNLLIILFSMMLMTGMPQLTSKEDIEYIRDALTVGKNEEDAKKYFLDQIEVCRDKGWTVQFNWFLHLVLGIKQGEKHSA
Tyrosine-protein kinase Fgr (Homo sapiens), sequence (P09769 2-529 limits assumed): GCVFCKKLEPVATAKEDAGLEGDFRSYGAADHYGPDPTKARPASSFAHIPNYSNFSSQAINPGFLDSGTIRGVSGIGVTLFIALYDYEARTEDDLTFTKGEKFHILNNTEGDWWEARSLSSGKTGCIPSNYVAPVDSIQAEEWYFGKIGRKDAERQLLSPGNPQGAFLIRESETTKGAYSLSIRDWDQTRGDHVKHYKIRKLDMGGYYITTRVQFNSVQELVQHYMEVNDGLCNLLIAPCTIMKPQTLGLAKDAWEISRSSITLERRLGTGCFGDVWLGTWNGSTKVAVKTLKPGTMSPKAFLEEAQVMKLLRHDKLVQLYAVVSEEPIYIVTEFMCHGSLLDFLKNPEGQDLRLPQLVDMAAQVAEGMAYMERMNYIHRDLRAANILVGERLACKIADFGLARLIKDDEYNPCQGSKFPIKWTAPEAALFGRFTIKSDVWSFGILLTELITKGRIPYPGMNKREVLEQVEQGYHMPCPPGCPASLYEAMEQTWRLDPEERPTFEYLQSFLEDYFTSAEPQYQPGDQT
Serine/threonine-protein kinase PLK4 (Homo sapiens), sequence (O00444 whole entry): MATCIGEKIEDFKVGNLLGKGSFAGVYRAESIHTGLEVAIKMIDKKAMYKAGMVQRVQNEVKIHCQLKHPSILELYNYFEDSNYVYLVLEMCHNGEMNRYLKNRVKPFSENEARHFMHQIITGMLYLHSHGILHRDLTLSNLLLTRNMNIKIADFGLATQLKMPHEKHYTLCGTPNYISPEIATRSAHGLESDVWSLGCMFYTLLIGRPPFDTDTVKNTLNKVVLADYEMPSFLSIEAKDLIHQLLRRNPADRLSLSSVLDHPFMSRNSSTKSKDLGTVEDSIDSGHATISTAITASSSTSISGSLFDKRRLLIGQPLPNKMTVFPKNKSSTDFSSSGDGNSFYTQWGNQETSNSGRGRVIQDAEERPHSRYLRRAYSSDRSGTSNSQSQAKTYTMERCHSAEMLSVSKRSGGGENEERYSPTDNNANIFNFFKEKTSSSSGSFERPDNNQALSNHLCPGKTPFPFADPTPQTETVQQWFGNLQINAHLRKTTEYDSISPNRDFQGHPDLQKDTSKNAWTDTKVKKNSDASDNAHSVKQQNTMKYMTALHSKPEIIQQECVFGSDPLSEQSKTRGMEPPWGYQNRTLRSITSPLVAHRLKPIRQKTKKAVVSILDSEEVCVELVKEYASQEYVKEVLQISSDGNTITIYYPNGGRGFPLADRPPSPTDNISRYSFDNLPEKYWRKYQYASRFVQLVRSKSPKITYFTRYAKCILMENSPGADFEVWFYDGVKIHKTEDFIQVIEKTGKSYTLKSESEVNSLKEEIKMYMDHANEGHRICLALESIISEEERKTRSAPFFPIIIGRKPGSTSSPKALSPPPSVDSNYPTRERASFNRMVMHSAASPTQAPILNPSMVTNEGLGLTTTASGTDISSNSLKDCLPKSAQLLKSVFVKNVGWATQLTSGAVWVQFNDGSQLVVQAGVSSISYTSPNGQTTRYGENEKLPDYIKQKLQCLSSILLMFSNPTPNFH
Serine/threonine-protein kinase 16 (Homo sapiens), sequence (O75716 whole entry): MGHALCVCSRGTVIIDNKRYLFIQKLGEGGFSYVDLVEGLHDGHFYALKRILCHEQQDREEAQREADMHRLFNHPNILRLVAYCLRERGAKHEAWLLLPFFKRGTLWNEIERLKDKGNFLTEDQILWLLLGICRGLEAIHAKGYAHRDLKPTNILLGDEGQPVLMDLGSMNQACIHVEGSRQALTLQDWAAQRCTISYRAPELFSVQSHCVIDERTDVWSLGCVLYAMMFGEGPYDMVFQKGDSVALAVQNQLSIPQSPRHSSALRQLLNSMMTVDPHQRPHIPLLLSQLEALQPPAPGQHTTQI

CN(C)CC#Cc1ccc(OCCCc2sc(N3CCc4cccc(C(=O)Nc5nc6ccccc6s5)c4C3)nc2C(=O)O)c(F)c1 [A-1155463]
inactive: residual activity [1] 100% | residual activity [2] 96% | residual activity [3] 76% | residual activity [4] 93% | residual activity [5] 100% | residual activity [6] 69% | residual activity [7] 98% | residual activity [8] 100% | residual activity [9] 75% | residual activity [10] 92% | residual activity [11] 100% | residual activity [12] 97% | residual activity [13] 100% | residual activity [14] 100% | residual activity [15] 100% | residual activity [16] 93% | inhibition [17] 31.5% | residual activity [18] 91% | residual activity [19] 95% | residual activity [20] 100% | residual activity [21] 77% | residual activity [22] 100% | residual activity [23] 100% | residual activity [24] 95% | residual activity [25] 100% | residual activity [26] 100% | residual activity [27] 96% | residual activity [28] 100% | residual activity [29] 97% | residual activity [30] 100% | residual activity [31] 83% | residual activity [32] 98% | residual activity [33] 83% | inhibition [34] 36.8% | residual activity [35] 95% | residual activity [36] 100% | residual activity [37] 100% | residual activity [38] 100% | residual activity [39] 98% | residual activity [40] 99% | residual activity [41] 85% | residual activity [42] 100% | residual activity [43] 100%
